Experimental data reported in the NIST ThermoML archive (doi:10.1016/j.jct.2017.04.015).

Experiment: mn = molality of the nth substance listed, in mol/kg
Conditions: 101.3 kPa, Liquid; for speed of sound: Frequency=2 MHz, Linear variable-path acoustic interferometer; for mass density: Pycnometric method

CCN(CC)CCOC(=O)c1ccc(N)cc1.Cl [2-diethylaminoethyl p-aminobenzoate hydrochloride] + O
Conditions	mass density [kg/m3]	speed of sound [m/s]
288.15 K, m1 = 0.01	999.6	1467.5
288.15 K, m1 = 0.02	1000.1	1469.1
288.15 K, m1 = 0.0301	1000.6	1470.7
288.15 K, m1 = 0.04	1001.1	1472.3
288.15 K, m1 = 0.05	1001.6	1473.9
288.15 K, m1 = 0.055	1001.85	1474.7
288.15 K, m1 = 0.0599	1002.09	1475.4
288.15 K, m1 = 0.065	1002.34	1476.2
288.15 K, m1 = 0.0701	1002.6	1477
288.15 K, m1 = 0.0751	1002.85	1477.7
288.15 K, m1 = 0.0801	1003.1	1478.5
288.15 K, m1 = 0.0852	1003.35	1479.2
288.15 K, m1 = 0.0898	1003.58	1480
288.15 K, m1 = 0.0952	1003.85	1480.7
288.15 K, m1 = 0.1	1004.09	1481.4
298.15 K, m1 = 0.0098	997.52	1498.3
298.15 K, m1 = 0.0196	997.99	1499.9
298.15 K, m1 = 0.0297	998.49	1501.5
298.15 K, m1 = 0.0406	999.02	1503.2
298.15 K, m1 = 0.0492	999.44	1504.6
298.15 K, m1 = 0.0534	999.65	1505.3
298.15 K, m1 = 0.061	1000.02	1506.5
298.15 K, m1 = 0.0636	1000.15	1506.9
298.15 K, m1 = 0.0688	1000.4	1507.7
298.15 K, m1 = 0.0758	1000.74	1508.8
298.15 K, m1 = 0.0783	1000.86	1509.2
298.15 K, m1 = 0.0846	1001.17	1510.2
298.15 K, m1 = 0.09	1001.44	1511
298.15 K, m1 = 0.0951	1001.68	1511.7
298.15 K, m1 = 0.1003	1001.94	1512.5
308.15 K, m1 = 0.01	994.51	1521.4
308.15 K, m1 = 0.02	995	1523
308.15 K, m1 = 0.03	995.48	1524.6
308.15 K, m1 = 0.0401	995.97	1526.2
308.15 K, m1 = 0.0499	996.44	1527.8
308.15 K, m1 = 0.055	996.69	1528.6
308.15 K, m1 = 0.06	996.93	1529.4
308.15 K, m1 = 0.065	997.17	1530.1
308.15 K, m1 = 0.0698	997.4	1530.9
308.15 K, m1 = 0.075	997.65	1531.7
308.15 K, m1 = 0.0801	997.9	1532.5
308.15 K, m1 = 0.085	998.14	1533.2
308.15 K, m1 = 0.09	998.38	1534
308.15 K, m1 = 0.095	998.62	1534.7
308.15 K, m1 = 0.1	998.86	1535.4

[Cl-].[K+] [potassium chloride] + O
Conditions	mass density, 288.15 K [kg/m3]	mass density, 298.15 K [kg/m3]	mass density, 308.15 K [kg/m3]	speed of sound, 288.15 K [m/s]	speed of sound, 298.15 K [m/s]	speed of sound, 308.15 K [m/s]
m1 = 0.06	1002.26	1000.42	997.25	1467.4	1498.3	1522.2
m1 = 0.1	1003.48	1001.79	998.71	1469.6	1502.5	1525.1
